From US20230381142A1, “ANTILEISHMANIAL COMPOUNDS, COMPOSITIONS AND USE THEREOF” (TRUSTEES OF BOSTON UNIVERSITY, priority 2022, published 2023) come the findings set out here.

Series [1] concerns L. donovani intracellular amastigotes infecting THP-1 macrophages. The series is described as follows: GSK intramacrophage L. donovani assay (LD AMMAC, inMac; Assay Conditions C). The series is classed as cell-based. To be noted: Leishmania donovani; for pIC50: THP-1; for pEC50: growth inhibition of L. donovani intracellular amastigotes infecting THP-1 macrophages, read-out: LD AMMAC EC50. The gist of the method:
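L. donovani amastigotes within THP-1 macrophages; EC50 based on average intracellular amastigotes per infected cell (AMMAC). Infected-cell percentage (INFCELL) and host-cell number (MAC) also read, the latter as toxicity output.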

The nature of series [2]: Kinetic aqueous solubility by CLND. In kind it is physicochemical. To be noted: kinetic from dmso stock, high-throughput CLND. The protocol:
Solubility of compounds using ChemiLuminescent Nitrogen Detection (CLND) was measured as described. Solubility of compounds using Charged Aerosol Detection (CAD) was measured as described. Solubility of solid compounds in Fasted Simulated Intestinal Fluid (FaSSIF) was measured as described.

In another series the test system is host THP-1 macrophages. As to the kind of experiment: GSK inMac assay, host cell toxicity readout (LD MAC). The series is classed as cell-based, human. To be noted: Homo sapiens, THP-1, cytotoxicity against host THP-1 macrophages. Put shortly:
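Intramacrophage L. donovani assay in THP-1 macrophages; host toxicity taken from host cell number per well, giving MAC EC50. Run alongside amastigote-per-cell and infected-cell readouts in the same wells.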

Series [3] has as its system L. donovani intracellular amastigotes in B10R cells. As to the kind of experiment: UCSD L. donovani infection assay (Assay Conditions D). To be noted: Leishmania donovani. The series is classed as cell-based. Put shortly:
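B10R cells (300/well) infected with stationary-phase L. donovani WT promastigotes at 20 parasites/cell in DMEM high-glucose, 5% FBS, with compounds 72 h at 37° C., 5% CO2. Formaldehyde-fixed, DAPI-stained, imaged by high-content microscopy; 10-point 2-fold dilutions (screen at 10 μM) gave EC50 and host CC50.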

In a further series the target is human serum albumin (Homo sapiens, UniProt P02768). As to the kind of experiment: Human serum albumin (HSA) binding, chromatographic. The series is classed as in vitro ADME. The procedure:
The percentage of compound bound to human serum albumin was measured using a chromatographic method as described. Briefly, each compound was assayed on an immobilized HSA column and gradient retention times measured, with chromatographic peak detection by UV. Each retention time was then converted to a % HSA bound value using a calibration set of compounds with a known % HSA binding.

The next series has as its system HepG2 cells. As to the kind of experiment: HepG2 cytotoxicity. The series is classed as cell-based. To be noted: Homo sapiens; toxicity against HepG2 cells.
Series [4] in a line: Property forecast index (PFI = ChromLogD7.4 + aromatic rings). In kind it is physicochemical.
The nature of series [5]: Artificial membrane permeability (AMP). In kind it is in vitro ADME. To be noted: PAMPA, pH 7.4. Put shortly:
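Passive permeation through 1.8% phosphatidylcholine in 1% decane membrane, 50 mM phosphate buffer pH 7.4 on donor and receiver sides. After 45 min pre-shaking, compounds incubated 3 h at room temperature with shaking, in duplicate; donor and receiver solutions quantified by LC/MS.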
(In general: In PAMPA a lipid-coated filter parts donor from acceptor wells.)

[6] abbreviates: aqueous medium (not further specified).

pEC50, pIC50: −log10 of the molar value. Values after ≈ are worked out from the molar mass of the structure shown.

Chain of human serum albumin (P02768 25-609): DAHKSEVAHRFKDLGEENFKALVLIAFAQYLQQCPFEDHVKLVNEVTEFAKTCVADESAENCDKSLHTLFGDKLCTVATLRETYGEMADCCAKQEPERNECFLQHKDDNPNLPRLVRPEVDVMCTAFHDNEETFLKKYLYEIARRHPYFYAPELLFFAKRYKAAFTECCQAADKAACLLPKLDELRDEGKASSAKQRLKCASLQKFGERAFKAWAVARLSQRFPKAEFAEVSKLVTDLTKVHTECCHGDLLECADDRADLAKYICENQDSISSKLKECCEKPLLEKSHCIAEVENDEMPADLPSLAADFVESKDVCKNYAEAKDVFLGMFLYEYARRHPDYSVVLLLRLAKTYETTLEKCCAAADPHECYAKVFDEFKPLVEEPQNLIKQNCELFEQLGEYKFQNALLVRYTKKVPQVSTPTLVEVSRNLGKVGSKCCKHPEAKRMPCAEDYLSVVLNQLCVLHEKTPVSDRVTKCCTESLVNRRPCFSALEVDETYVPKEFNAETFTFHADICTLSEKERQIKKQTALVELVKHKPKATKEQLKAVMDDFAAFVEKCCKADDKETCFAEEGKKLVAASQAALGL

For the compound `CC(C)Cc1n[nH]c2c1C(c1ccc(F)cc1)N(c1ccc(N(C)C)cc1)C2=O` (stereo not shown) [Compound 21, 5-(4-(dimethylamino)phenyl)-4-(4-fluorophenyl)-3-isobutyl-4,5-dihydropyrrolo[3,4-c]pyrazol-6(1H)-one], the figures for the pIC50 in series [1] and in series [3] were 6.00 and 6.70, respectively. The pEC50 (usually the EC50 on a negative log10 scale, so that one unit is a factor of ten) is 6.00 in series [1], 4.40 with host THP-1 macrophages and 4.30 in the series on HepG2 cells. In addition, the solubility (commonly the dissolved amount per volume that the medium holds) in series [2] (aqueous (not further specified)) is 33 µM (≈ 13 µg/mL). The “HSA Binding” value on human serum albumin came to 96.1%. Besides, the PFI in series [4] was 9.0. Moreover, in series [5], the Papp (commonly a coefficient for how fast a substance crosses the barrier) at 3 h worked out at 160 nm/s.
For the compound `CC(C)Cc1n[nH]c2c1C(c1ccc(F)cc1)N(CCN1CCCC1)C2=O` (stereo not shown) [Compound 39], the pIC50 (in general, the IC50 on a negative log10 scale, so that one unit is a factor of ten) in series [1] was 4.80; in series [3], 4.98. For the same compound, the negative-log EC50 (pEC50) is 4.80 in series [1], < 4.30 with host THP-1 macrophages and < 4.00 in the series with HepG2 cells. Moreover, the solubility in series [2] (setting [6]) is ≥ 433 µM. Further, the “HSA Binding” value at human serum albumin turned out to be 76.7%. Further, the PFI in series [4] is 5.3. Besides, the Papp at 3 h in series [5] stood at 230 nm/s.
As for `COc1ccc(N2C(=O)c3[nH]nc(CC(C)C)c3C2c2ccc(F)cc2)cc1F` (stereo not shown) [Compound 42, 5-(3-fluoro-4-methoxyphenyl)-4-(4-fluorophenyl)-3-isobutyl-4,5-dihydropyrrolo[3,4-c]pyrazol-6(2H)-one], the negative logarithm of the IC50 (pIC50) in series [1] was 5.89; in series [3], 6.22. Moreover, the pEC50 in series [1] is 5.89; in the series with host THP-1 macrophages, 4.60; in the series with HepG2 cells, 4.30. Further, the concentration in solution in series [2] (aqueous medium) (solubility) was 39 µM (≈ 15.5 µg/mL). Further, the “HSA Binding” value at human serum albumin was 96.9%. The PFI in series [4] amounted to 8.6. In series [5], this compound came in with a Papp at 3 h of 290 nm/s.
`CC(C)Cc1n[nH]c2c1C(c1ccc(F)cc1)N(c1ccc3c(c1)OCO3)C2=O` (stereo not shown) [Compound 44, 5-(benzo[d][1,3]dioxol-5-yl)-4-(4-fluorophenyl)-3-isobutyl-4,5-dihydropyrrolo[3,4-c]pyrazol-6(1H)-one]: the pIC50 in series [1] is 6.22; in series [3], 6.52. Also, the figures for the pEC50 (in series [1]; in the series with host THP-1 macrophages; in the series on HepG2 cells) were 6.22, 4.60 and 4.20, respectively. In series [2] (aqueous medium), this compound registered a solubility of 63 µM (≈ 24.8 µg/mL). Also, the “HSA Binding” value on human serum albumin was 96.2%. In addition, the PFI in series [4] amounted to 8.4. Besides, the Papp at 3 h in series [5] was 390 nm/s.
For `CC(C)Cc1n[nH]c2c1C(c1ccc(F)cc1)N(c1ccc3c(c1)OCCO3)C2=O` (stereo not shown) [Compound 45], the pIC50 in series [1] was 5.49; in series [3] it was 6.05. The pEC50 in series [1] is 5.49; with host THP-1 macrophages, 4.60; in the series on HepG2 cells, < 4.30. Moreover, in series [2] (aqueous medium), the solubility amounted to 50 µM (≈ 20.4 µg/mL). In addition, on human serum albumin, the “HSA Binding” value worked out at 96.2%. Moreover, the PFI in series [4] was 8.4. The compound also displayed an apparent permeability (Papp) at 3 h in series [5] of 510 nm/s.
On to `COc1ccc(N2C(=O)c3[nH]nc(CC(C)C)c3C2c2ccccc2Cl)cc1` (stereo not shown) [Compound 55, 4-(2-chlorophenyl)-3-isobutyl-5-(4-methoxyphenyl)-4,5-dihydropyrrolo[3,4-c]pyrazol-6(1H)-one], for which the negative logarithm of the IC50 (pIC50) in series [1] is 5.89; in series [3], 6.70. Besides, the values for the negative-log EC50 (pEC50) (in series [1]; with host THP-1 macrophages; in the series with HepG2 cells) were 5.89, 4.70 and 4.50, respectively. Besides, in series [2] (setting [6]), the concentration in solution (solubility) was 30 µM (≈ 11.9 µg/mL). Besides, the “HSA Binding” value at human serum albumin came out at 97.8%. The PFI in series [4] came out at 8.8. In addition, in series [5], the Papp at 3 h stood at 330 nm/s.
Regarding `COc1ccc(N2C(=O)c3[nH]nc(CC(C)C)c3C2c2ccsc2)cc1` (stereo not shown) [Compound S3], the pIC50 in series [1] was 5.20; in series [3], 5.40. The negative-log EC50 (pEC50) in series [1] is 5.20; in the series with host THP-1 macrophages it was < 4.30; in the series with HepG2 cells it was < 4.00. Moreover, the solubility in series [2] (setting [6]) was 149 µM (≈ 54.8 µg/mL). The “HSA Binding” value at human serum albumin was found to be 95.4%. Moreover, in series [4], the PFI was found to be 8.3. Moreover, the Papp at 3 h in series [5] came to 470 nm/s.
For the compound `COc1ccc(N2C(=O)c3[nH]nc(CC(C)C)c3C2c2ccc(F)cn2)cc1` (stereo not shown) [Compound S10], the values for the pIC50 in series [1] and in series [3] were 5.00 and 5.47, respectively. The negative-log EC50 (pEC50) is 5.00 in series [1], < 4.30 in the series with host THP-1 macrophages and < 4.00 with HepG2 cells. For the same compound, the solubility in series [2] (setting [6]) is ≥ 343 µM. The “HSA Binding” value on human serum albumin worked out at 90.2%. For the same compound, in series [4], the PFI is 7.7. The Papp at 3 h in series [5] came out at 490 nm/s.
On to `COc1ccc(N2C(=O)c3[nH]nc(CC(C)C)c3C2c2cncc(OC)c2)cc1` (stereo not shown) [Compound S11], for which the pEC50 is 5.00 in series [1], 4.70 in the series on host THP-1 macrophages and < 4.00 with HepG2 cells. The solubility in series [2] (setting [6]) amounted to 386 µM (≈ 151 µg/mL). The “HSA Binding” value on human serum albumin is 91.2%. Also, the PFI in series [4] came out at 6.6. In series [5], this compound returned a Papp at 3 h of 470 nm/s.
As to `COc1ccc(N2C(=O)c3[nH]nc(CC(C)C)c3C2c2ccc(OC)nc2)cc1` (stereo not shown) [Compound S12], the results for the pEC50 (in series [1]; in the series on host THP-1 macrophages; with HepG2 cells) were < 4.30, < 4.30 and < 4.00, respectively. The solubility in series [2] (setting [6]) was 272 µM (≈ 107 µg/mL). Moreover, the “HSA Binding” value on human serum albumin was 92.6%. In series [4], the PFI is on record as 7.5. In series [5], this compound had a Papp at 3 h of 440 nm/s.
In the case of `COc1ccc(N2C(=O)c3[nH]nc(CC(C)C)c3C2c2ccc(F)c(C)n2)cc1` (stereo not shown) [Compound S13], the pEC50 in series [1] is 4.90; in the series on host THP-1 macrophages, < 4.30; with HepG2 cells, < 4.00. Also, the concentration in solution in series [2] (setting [6]) (solubility) came to 305 µM (≈ 120 µg/mL). Besides, the “HSA Binding” value on human serum albumin was determined as 94.4%. In addition, in series [4], the PFI is recorded as 8.3. This compound yielded a Papp at 3 h in series [5] of 380 nm/s.
On to `COc1ccc(N2C(=O)c3[nH]nc(CC(C)C)c3C2c2cc(F)nc(F)c2)cc1` (stereo not shown) [Compound S14], for which the pEC50 in series [1] was < 4.30; in the series with host THP-1 macrophages, < 4.30; with HepG2 cells it was < 4.00. This compound had a solubility in series [2] (setting [6]) of 367 µM (≈ 146 µg/mL). In addition, at human serum albumin, the “HSA Binding” value stood at 93%. For the same compound, the PFI in series [4] was found to be 7.4. This compound came in with an apparent permeability (Papp) at 3 h in series [5] of 540 nm/s.
